Test [1] deals with T1, human TLR2 (Pam3CSK4, TLR1/2 agonist) in HEK-Blue hTLR2 cells (Homo sapiens, UniProt O60603).
T1 construct: host or cells: HEK-Blue hTLR2 (HEK-293)
Kind of test: HEK-Blue hTLR2 antagonism assay (SEAP reporter) with Pam3CSK4 as agonist. To be noted: 2 h compound pre-incubation, approx. 3×EC50 Pam3CSK4, 18 h, SEAP OD 655 nm, background subtracted. In kind it is cell-based. The method, then:
(§1) Synthetic diacylated lipoprotein (Pam2CSK4, TLR2/6 agonist) and synthetic triacylated lipoprotein (Pam3CSK4, TLR1/2 agonist) were obtained from InvivoGen and were dissolved in endotoxin-free water to a concentration 1 mg/mL, vortexed until complete solubilization, and stored in aliquots at −20° C. Prior to addition to cells, an aliquot of the dissolved ligand was vortexed shortly and then was diluted in medium to 25 ng/mL Pam2CSK4 or 1000 ng/mL Pam3CSK4. The EC50 of the agonists for each assay run was determined by using 3-fold dilutions of each agonist from the following starting concentrations: 5 ng/mL for Pam2CSK4, and 200 ng/mL for Pam3CSK4.
(§2) Test compounds were solubilized fresh to 10-20 mM stocks in DMSO and sonicated for 5-10 minutes in a water bath sonicator. Serial dilutions were prepared in DMSO, and then diluted in medium. The final concentration of DMSO used in the assay was 1%.
(§3) HEK-Blue hTLR2 reporter cells (InvivoGen) are HEK-293 cells stably expressing both the human TLR2 gene and a secreted embryonic alkaline phosphatase (SEAP) reporter construct downstream of NFκB promotor sites. HEK-Blue hTLR2 reporters were cultured according to manufacturer's protocol using Dulbecco's Modified Eagle Medium (DMEM; Gibco) containing 1× GlutaMax (Gibco), 10% heat-inactivated Fetal Bovine Serum (Gibco), Pen-Strep (50 U/mL penicillin, 50 μg/mL streptomycin, Gibco), 100 μg/mL Normocin (InvivoGen), and the selective antibiotic, 1× HEK-Blue Selection (InvivoGen). Quanti-Blue reagent (InvivoGen) for detection and quantification of secreted alkaline phosphatase was dissolved in 100 mL of endotoxin-free water, warmed to 37° C. for 30 minutes and then filtered using a 0.2 μm membrane.
(§4) On day 1, 50 μL of each test compound dilution in duplicates or a vehicle control was added to each well of a 96-well plate followed by addition of 150 μL of HEK-Blue hTLR2 cell suspension (1×10^5 cells/well) and incubated at 37° C./5% CO2 for 2 h. Next, 50 μL of an approximate 3×EC50 concentration of each agonist (Pam2CSK4 or Pam3CSK4) was added to the wells containing test compounds or the vehicle control. The plates were then incubated at 37° C./5% CO2 for 18 h. For each assay run, non-treated HEK-Blue hTLR2 cells were treated with serial dilutions of agonists to determine EC50 values for the respective run.
(§5) On day 2, secreted alkaline phosphatase (SEAP) activity was detected in cell culture supernatants. In brief, 20 μL was collected from each well and transferred to a 96-well plate. Next, 200 μL of Quanti-Blue detection reagent was added to each well. Plates were incubated at room temperature for 15 min and SEAP activity was assessed by spectrophotometer OD reading at 655 nm. […] The activities of the compounds against Pam2CSK4 and Pam3CSK4 are presented as IC50 values for the response from cells treated with agonists with the background signal subtracted.

In test [2] the target is T2, human TLR2 (Pam2CSK4, TLR2/6 agonist) in HEK-Blue hTLR2 cells (Homo sapiens, UniProt O60603).
T2 construct: host or cells: HEK-Blue hTLR2 (HEK-293)
T2 sequence (O60603 19-784 limits assumed): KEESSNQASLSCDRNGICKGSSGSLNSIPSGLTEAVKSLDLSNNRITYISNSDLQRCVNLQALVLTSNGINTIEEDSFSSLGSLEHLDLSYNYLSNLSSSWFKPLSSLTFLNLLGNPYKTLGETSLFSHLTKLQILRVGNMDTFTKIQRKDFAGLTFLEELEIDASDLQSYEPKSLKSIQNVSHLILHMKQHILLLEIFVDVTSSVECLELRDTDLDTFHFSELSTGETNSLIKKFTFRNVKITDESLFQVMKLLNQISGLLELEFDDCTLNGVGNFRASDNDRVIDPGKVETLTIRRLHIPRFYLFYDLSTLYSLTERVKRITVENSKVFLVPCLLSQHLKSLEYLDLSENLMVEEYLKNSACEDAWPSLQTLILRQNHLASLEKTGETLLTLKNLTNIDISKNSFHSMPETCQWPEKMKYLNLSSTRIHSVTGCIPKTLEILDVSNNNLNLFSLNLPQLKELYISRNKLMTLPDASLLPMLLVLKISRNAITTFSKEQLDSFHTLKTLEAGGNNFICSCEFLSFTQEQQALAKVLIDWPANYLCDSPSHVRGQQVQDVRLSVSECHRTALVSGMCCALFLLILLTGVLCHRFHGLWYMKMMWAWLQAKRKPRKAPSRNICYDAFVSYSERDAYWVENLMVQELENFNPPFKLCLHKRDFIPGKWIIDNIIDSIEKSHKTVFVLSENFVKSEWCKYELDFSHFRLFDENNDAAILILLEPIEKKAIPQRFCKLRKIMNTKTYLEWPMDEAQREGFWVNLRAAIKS
Kind of test: HEK-Blue hTLR2 antagonism assay (SEAP reporter) with Pam2CSK4 as agonist. The test is classed as cell-based. The note with it: 2 h compound pre-incubation, approx. 3×EC50 Pam2CSK4, 18 h, SEAP OD 655 nm, background subtracted. The method, then:
as §1, §2, §3, §4, §5

Where a name gives a salt, the structure may show the parent alone.

IC50 data for 28 compounds are collected here from US11345713B2, “Compounds as modulators of TLR2 signaling” (Neuropore Therapies, inc., priority 2018, dated 2022).

T1 sequence (O60603 19-784 limits assumed): as above

Consider `CCN1CCN(c2ccc(/C=C/c3cc(O)c(C=O)c(F)c3)cc2)CC1` [compound 72, (E)-4-(4-(4-ethylpiperazin-1-yl)styryl)-2-fluoro-6-hydroxybenzaldehyde], for which the IC50 in test [1] stood at 11.2 µM; in test [2], 8.2 µM.

In the case of `COc1cc(/C=C/c2ccc(-c3ccccc3)cc2)cc(C=O)c1O` [compound 36, (E)-5-(2-([1,1′-biphenyl]-4-yl)vinyl)-2-hydroxy-3-methoxybenzaldehyde], the IC50 in test [1] amounted to 0.4 µM; in test [2] it was 0.6 µM.

For `COc1cc(/C=C/c2ccc(N3CCCC3)cc2)cc(O)c1C=O` [compound 52, (E)-2-hydroxy-6-methoxy-4-(4-(pyrrolidin-1-yl)styryl)benzaldehyde], the IC50 in test [1] and in test [2] was greater than 100 µM in each case.

Take `CC(=O)N/N=C/c1cc(/C=C/c2ccc(N3CCCC3)cc2)cc(F)c1O` [compound 77, N′-((E)-3-fluoro-2-hydroxy-5-((E)-4-(pyrrolidin-1-yl)styryl)benzylidene)acetohydrazide]: the IC50 in test [1] was 1.1 µM; in test [2], 1.4 µM.

As to `COc1ccc(/C=C/c2cc(C=O)c(O)cc2F)cc1` [compound 22, (E)-4-fluoro-2-hydroxy-5-(4-methoxystyryl)benzaldehyde], the figures for the IC50 in test [1] and in test [2] were 6.3 µM and 17.8 µM, respectively.

As for `COc1cc(-c2cc3c(s2)CCN(C(C)C)C3)cc(C=O)c1O` [compound 20, 2-hydroxy-5-(5-isopropyl-4,5,6,7-tetrahydrothieno[3,2-c]pyridin-2-yl)-3-methoxybenzaldehyde], the IC50 in test [1] worked out at 10 µM; in test [2], 11.2 µM.

On to `CC(C)(C)OC(=O)N1CCCc2cc(/C=C/c3cc(F)c(O)c(C=O)c3)ccc21` [compound 61, tert-butyl (E)-6-(3-fluoro-5-formyl-4-hydroxystyryl)-3,4-dihydroquinoline-1(2H)-carboxylate], for which the concentration for half-maximal inhibition (IC50) was found to be 0.4 µM in test [1] and 1 µM in test [2].

As for `O=Cc1cc(/C=C/c2ccccn2)ccc1O` [compound 24, (E)-2-hydroxy-5-(2-(pyridin-2-yl)vinyl)benzaldehyde], the half-maximal inhibitory concentration (IC50) in test [1] and in test [2] was greater than 100 µM each time.

In the case of `COc1cc(/C=C/c2ccccn2)cc(C=O)c1O` [compound 23, (E)-2-hydroxy-3-methoxy-5-(2-(pyridin-2-yl)vinyl)benzaldehyde], the results for the IC50 in test [1] and in test [2] were 11.5 µM and 11.8 µM, respectively.

As to `COc1cc(/C=C/C(=O)c2ccccc2)cc(C(=O)/C=C/c2ccccc2)c1O` [compound 84, (E)-3-(3-cinnamoyl-4-hydroxy-5-methoxyphenyl)-1-phenylprop-2-en-1-one], the IC50 in test [1] was 3.1 µM; in test [2], 3.4 µM.

Consider `COc1cc(C=Cc2ccc(Cl)cc2)cc(C=O)c1O` [compound 3, 5-(4-chlorostyryl)-2-hydroxy-3-methoxybenzaldehyde], for which the IC50 in test [1] came out at 3.1 µM; in test [2], 4.8 µM.

Take `COc1cc(/C=C/c2ccc(OCC3CC3)cc2)cc(C=O)c1O` [compound 65, (E)-5-(4-(cyclopropylmethoxy)styryl)-2-hydroxy-3-methoxybenzaldehyde]: the concentration for half-maximal inhibition (IC50) in test [1] stood at 0.5 µM; in test [2] it was 1.7 µM.

On to `CN1CCN(/N=C/c2cc(/C=C/c3ccc(N4CCCC4)cc3)cc(F)c2O)CC1` [compound 76, 2-fluoro-6-((E)-((4-methylpiperazin-1-yl)imino)methyl)-4-((E)-4-(pyrrolidin-1-yl)styryl)phenol], for which the IC50 in test [1] came to 0.5 µM; in test [2], 0.4 µM.

Regarding `CCN1CCN(/N=C/c2cc(/C=C/c3ccc(N4CCCC4)cc3)cc(F)c2O)CC1` [compound 93, 2-((E)-((4-ethylpiperazin-1-yl)imino)methyl)-6-fluoro-4-((E)-4-(pyrrolidin-1-yl)styryl)phenol], the half-maximal inhibitory concentration (IC50) in test [1] came to 3.2 µM; in test [2], 24.5 µM.

On to `COc1cc(/C=C/c2ccccc2)cc(C=O)c1O` [compound 4, (E)-2-hydroxy-3-methoxy-5-styrylbenzaldehyde], for which the 50% inhibitory concentration (IC50) amounted to 4 µM in test [1] and 5.5 µM in test [2].

On to `CC(C)(C)OC(=O)N1CCC(/C=C/c2cc(F)c(O)c(C=O)c2)CC1` [compound 31, tert-butyl (E)-4-(3-fluoro-5-formyl-4-hydroxystyryl)piperidine-1-carboxylate], for which the concentration for half-maximal inhibition (IC50) in test [1] was determined as 6 µM; in test [2] it was 3.8 µM.

On to `COCCOc1ccc(/C=C/c2cc(C=O)c(O)c(OC)c2)cc1` [compound 54, (E)-2-hydroxy-3-methoxy-5-(4-(2-methoxyethoxy)styryl)benzaldehyde], for which the IC50 was 4.6 µM in test [1] and 4 µM in test [2].

Consider `COc1cc(-c2cc3c(s2)CCN(C(=O)C2CC2)C3)cc(C=O)c1O` [compound 14, 5-(5-(cyclopropanecarbonyl)-4,5,6,7-tetrahydrothieno[3,2-c]pyridin-2-yl)-2-hydroxy-3-methoxybenzaldehyde], for which the figures for the IC50 in test [1] and in test [2] were 4.2 µM and 5.7 µM, respectively.

With `COc1cc(/C=C/C(=O)c2ccccc2)cc(C=O)c1O` [compound 33, (E)-2-hydroxy-3-methoxy-5-(3-oxo-3-phenylprop-1-en-1-yl)benzaldehyde], the 50% inhibitory concentration (IC50) in test [1] turned out to be 6.4 µM; in test [2], 6.2 µM.

For the compound `Oc1c(F)cc(/C=C/c2ccc(N3CCCC3)cc2)cc1/C=N/Nc1ccccc1` [compound 79, 2-fluoro-6-((E)-(2-phenylhydrazono)methyl)-4-((E)-4-(pyrrolidin-1-yl)styryl)phenol], the IC50 in test [1] came out at 6 µM; in test [2] it was 4.4 µM.

Regarding `O=Cc1cc(/C=C/c2cccc(N3CCCC3)c2)cc(F)c1O` [compound 47, (E)-3-fluoro-2-hydroxy-5-(3-(pyrrolidin-1-yl)styryl)benzaldehyde], the IC50 in test [1] is 0.9 µM; in test [2], 1.3 µM.

For `O=C1CN(/N=C/c2cc(/C=C/c3ccc(N4CCCC4)cc3)cc(F)c2O)C(=O)N1` [compound 88, 1-(((E)-3-fluoro-2-hydroxy-5-((E)-4-(pyrrolidin-1-yl)styryl)benzylidene)amino)imidazolidine-2,4-dione], the results for the half-maximal inhibitory concentration (IC50) in test [1] and in test [2] were 7.9 µM and 11.2 µM, respectively.

In the case of `COc1cc(C=Cc2ccc3c(c2)OCCO3)cc(C=O)c1O` [compound 38, 5-(2-(2,3-dihydrobenzo[b][1,4]dioxin-6-yl)vinyl)-2-hydroxy-3-methoxybenzaldehyde], the figures for the IC50 in test [1] and in test [2] were 5 µM and 4.4 µM, respectively.

Take `COc1cc(-c2cc3c(s2)CCNC3)cc(C=O)c1O` [compound 13, 2-hydroxy-3-methoxy-5-(4,5,6,7-tetrahydrothieno[3,2-c]pyridin-2-yl)benzaldehyde hydrochloride]: the half-maximal inhibitory concentration (IC50) in test [1] was 3.8 µM; in test [2], 4.5 µM.

Consider `COc1cc(-c2cc3c(s2)CCN(C(=O)C2CC2)C3)cc(/C=C/C(=O)c2ccccc2)c1O` [compound 73, (E)-3-(5-(5-(cyclopropanecarbonyl)-4,5,6,7-tetrahydrothieno[3,2-c]pyridin-2-yl)-2-hydroxy-3-methoxyphenyl)-1-phenylprop-2-en-1-one], for which the 50% inhibitory concentration (IC50) in test [1] was determined as 4.8 µM; in test [2] it was 4.5 µM.

Take `COc1cc(/C=C/c2ccncc2)cc(C=O)c1O` [compound 25, (E)-2-hydroxy-3-methoxy-5-(2-(pyridin-4-yl)vinyl)benzaldehyde]: the half-maximal inhibitory concentration (IC50) was found to be 16.4 µM in test [1] and 15.2 µM in test [2].

With `O=Cc1cc(/C=C/c2ccc(-c3ccccc3)cc2)cc(F)c1O` [compound 37, (E)-5-(2-([1,1′-biphenyl]-4-yl)vinyl)-3-fluoro-2-hydroxybenzaldehyde], the IC50 in test [1] worked out at 0.3 µM; in test [2] it was 1 µM.

On to `O=Cc1cc(/C=C/c2ccc(N3CCCC3)cc2)cc(F)c1O` [Example 49b, (E)-3-fluoro-2-hydroxy-5-(4-(pyrrolidin-1-yl)styryl)benzaldehyde], for which the half-inhibitory concentration (IC50) in test [1] and in test [2] was 0.8 µM throughout.
